According to patent US20190381017A1, “Compositions Comprising Serdexmethylphenidate Conjugates And Methods Of Use Thereof” (KemPharm, Inc., priority 2018, published 2019):
Structures can show the parent of a compound that is named as a salt. Marks after values point to notes of the source that are not given here.

How the values were obtained:
[1] = test system: recreational stimulant users; test: Intravenous abuse potential, VAS pharmacodynamic scores (Example 2); type: in vivo, human; details: SDX Cl 30 mg, d-MPH HCl 15 mg, bipolar VAS
From the text: “Drug liking” score, used herein, is the score used to assess the degree that a human participant likes a drug effect at the time the question is being asked (that is, at the moment). It is scored using a 0 to 100 point bipolar visual analogue scale (VAS) anchored in the center with a neutral anchor of “neither like nor dislike” (score of 50), on the left with “strong disliking” (score of 0) and on the right with “strong liking” (score of 100).
“Euphoria” or “Feeling High” score, used herein, is the term to describe the score used to assess the degree that a human participant is high at the time the question is being asked (that is, at the moment). It is scored using a 0 to 100 point unipolar visual analogue scale (VAS) anchored on the left with “Not at All” (score of 0) and on the right with “Extremely” (score of 100).
“Take Drug Again” score, used herein, is the term to describe the score used to assess the degree that a human participant wants to take the drug again, if given the opportunity, based on his/her opinion now, i.e., at the time the question is being asked. It is scored using a 0 to 100 point unipolar visual analogue scale (VAS) anchored on the left with “Definitely Would Not” (score of 0) and on the right with “Definitely Would” (score of 100).
“Overall Drug Liking” score, used herein, is the term to describe the score used to assess the human subject's global perception of drug liking (i.e., the subjective effects over the whole course of the drug experience including any carryover effects). Subjects respond to the statement “Overall, my liking for this drug is.” The question is scored using a 0-100 point bipolar VAS anchored on the left with “Strong Disliking” (score of 0); “Neither Like nor Dislike” (score of 50) in the middle, and anchored on the right with “Strong Liking” (score of 100). This scale has the advantage of the human subject being relatively less affected or unaffected by acute study drug effects (if any) by the time of the assessment.
“Good Effects” score, used herein, is the term to describe the score used to assess the degree that a human participant is feeling good drug effects at the time the question is being asked (that is, at the moment). Subjects respond to the statement “At this moment, I can feel good drug effects.” It is scored using a 0 to 100 point unipolar visual analogue scale (VAS) anchored on the left with “Not at All” (score of 0) and on the right with “Extremely” (score of 100).
Safety assessments were performed throughout the study.

[2] = test system: recreational stimulant users; test: Treatment-emergent adverse events, intravenous study (Example 2)
Experimental: A study was conducted in humans to assess the intravenous abuse potential of serdexmethylphenidate relative to unconjugated d-methylphenidate and placebo in recreational stimulant abusers. This was a Phase 1, randomized, double-blind study in which serdexmethylphenidate and d-methylphenidate were administered intravenously in recreational stimulant users with a history of non-oral abuse. In Part A of the study, subjects (Cohort 1) participated in a dose-escalation phase to determine the optimal dose of intravenous d-methylphenidate based on tolerability and abuse-related pharmacodynamic assessments. […] The doses of serdexmethylphenidate and d-methylphenidate are equivalent with respect to molar amount of d-methylphenidate. FDA-recommended abuse potential measures and blood samples were collected at different times after dosing. Safety assessments were performed throughout the study.

[3] = test system: healthy, nondependent, recreational stimulant users; test: Oral abuse potential, VAS pharmacodynamic scores (Example 4); details: phentermine HCl 60 mg
[4] = SDX Cl 120 mg, Focalin XR 80 mg
[5] = SDX Cl 120 mg, Focalin XR 80 mg, bipolar VAS
[6] = SDX Cl 120 mg, Focalin XR 80 mg, unipolar VAS

In the case of `COC(=O)[C@H](c1ccccc1)[C@H]1CCCCN1C(=O)OC[n+]1cccc(C(=O)N[C@@H](CO)C(=O)O)c1` [serdexmethylphenidate], the “Drug Liking Emax (mean)” value [1] was 56.6.
For `COC(=O)[C@H](c1ccccc1)[C@H]1CCCCN1` [d-methylphenidate, methyl (R)-2-phenyl-2-((R)-piperidin-2-yl)acetate, reference compound], the “typical stimulant-related Adverse Events (euphoric mood, hypervigilance, increased heart rate), frequency vs serdexmethylphenidate” value [2] was “more common” and the “Drug Liking Emax (mean)” value [1] was 84.3.
With `CC(C)(N)Cc1ccccc1` [phentermine hydrochloride, reference compound] the “Mean difference Any Effects Emax vs SDX Cl 120 mg” value ([3]; Focalin XR 80 mg) was 37.4, the “Mean difference Any Effects Emax vs SDX Cl 240 mg” value ([3]; Focalin XR 80 mg) was 28.0 and the “Mean difference Bad Effects Emax vs SDX Cl 120 mg” value ([3]; Focalin XR 80 mg) was 11.9. The “Mean difference Bad Effects Emax vs SDX Cl 240 mg” value ([3]; Focalin XR 80 mg) was 4.6, the “Mean difference Drug Liking Emax vs SDX Cl 120 mg” value ([3]; Focalin XR 80 mg) was 15.5 and the “Mean difference Drug Liking Emax vs SDX Cl 240 mg” value ([3]; Focalin XR 80 mg) was 14.0. The “Mean difference Feeling Alert/Drowsy Emax vs SDX Cl 120 mg” value ([3]; Focalin XR 80 mg) was 15.7, the “Mean difference Feeling Alert/Drowsy Emax vs SDX Cl 240 mg” value ([3]; Focalin XR 80 mg) was 12.2 and the “Mean difference Feeling High Emax vs SDX Cl 120 mg” value ([3]; Focalin XR 80 mg) was 36.0. For the same compound, the “Mean difference Feeling High Emax vs SDX Cl 240 mg” value ([3]; Focalin XR 80 mg) was 27.7, the “Mean difference Good Effects Emax vs SDX Cl 120 mg” value ([3]; Focalin XR 80 mg) was 35.5 and the “Mean difference Good Effects Emax vs SDX Cl 240 mg” value ([3]; Focalin XR 80 mg) was 30.2. For the same compound, the “Mean difference Overall Drug Liking Emax vs SDX Cl 120 mg” value ([3]; Focalin XR 80 mg) was 14.9, the “Mean difference Overall Drug Liking Emax vs SDX Cl 240 mg” value ([3]; Focalin XR 80 mg) was 15.3 and the “Mean difference Take Drug Again Emax vs SDX Cl 120 mg” value ([3]; Focalin XR 80 mg) was 14.9. The “Mean difference Take Drug Again Emax vs SDX Cl 240 mg” value ([3]; Focalin XR 80 mg) was 15.4, the “Mean difference Any Effects Emax vs placebo” value [3, 4] was 48.5 and the “Mean difference Drug Liking Emax vs placebo” value [3, 4] was 22.3. The “Mean difference Feeling Alert/Drowsy Emax vs placebo” value [3, 4] was 23.5, the “Mean difference Feeling High Emax vs placebo” value [3, 4] was 46.4 and the “Mean difference Good Effects Emax vs placebo” value [3, 4] was 47.6. For the same compound, the “Mean difference Overall Drug Liking Emax vs placebo” value [3, 4] was 18.6, the “Mean difference Take Drug Again Emax vs placebo” value [3, 4] was 17.1 and the “Drug Liking Emax (mean)” value [3, 5] was 80.2. For the same compound, the “Drug Liking Emax (median)” value [3, 5] was 84.0, the “Feeling Alert/Drowsy Emax (mean)” value [3, 5] was 81.4 and the “Feeling Alert/Drowsy Emax (median)” value [3, 5] was 84.0. The “Overall Drug Liking Emax (mean)” value [3, 5] was 73.4, the “Overall Drug Liking Emax (median)” value [3, 5] was 77.0 and the “Take Drug Again Emax (mean)” value [3, 5] was 72.3. For the same compound, the “Take Drug Again Emax (median)” value [3, 5] was 75.0, the “Any Effects Emax (mean)” value [3, 6] was 69.2 and the “Any Effects Emax (median)” value [3, 6] was 74.0. The “Bad Effects Emax (mean)” value [3, 6] was 17.9, the “Bad Effects Emax (median)” value [3, 6] was 7.0 and the “Feeling High Emax (mean)” value [3, 6] was 65.3. The “Feeling High Emax (median)” value [3, 6] was 76.0, the “Good Effects Emax (mean)” value [3, 6] was 66.2 and the “Good Effects Emax (median)” value [3, 6] was 75.0. The “Median difference Bad Effects Emax vs placebo” value [3] was 8.0^c.
